Data set [1] deals with T1, CYP3A4 (Homo sapiens (Human), UniProt P08684). To be noted: background literature; cited from earlier work.
Data set [2] deals with T1, CYP3A4. Nature of the data set: Inhibitory effect on CYP3A4 (Luciferin-IPA).
Method: Enzyme reaction was performed by incubating in a potassium phosphate buffer solution (pH 7.4) containing 1 nM to 20 μM test compound, 3.2 mM magnesium chloride, 0.2 pmol human CYP3A4 (BD Biosciences), 0.5 mM reduced nicotinamide adenine dinucleotide phosphate (NADPH) and 3 μM Luciferin-IPA (Promega) at 37° C. for 10 minutes. The volume of the reaction solution was 50 μL/well. The 30-minute pre-incubation group was incubated at 37° C. for 30 minutes before adding the substrate, the Luciferin-IPA solution (12.5 μL/well). At the end of the enzyme reaction, 50 μL/well of a Luciferin detection reagent (Promega) was added to the wells, and the plate was left at room temperature for 20 minutes. Then, the emission intensities were measured with Infinite M1000 (TECAN). The enzyme activities (%) relative to the value of the group to which the test compound was not added were calculated.
The target of data set [3] is T2, human NK1 receptor (Homo sapiens (Human), UniProt P25103). Nature of the data set: Inhibitory effect on human NK1 receptor (substance P-induced increase in intracellular calcium concentration). Type of data set: cell-based. To be noted: HEK-293T; substance P 1 μM, compound 0.1 μM; human NK1 receptor-expressing 293T cells; read-out: SPRR (Substance P-Response Remaining). As for the experimental part: Inhibitory Effect on Human NK1 Receptor
(1) Preparation of Human NK1 Receptor-expressing Cells
Human NK1 receptor-expressing cells were prepared by the same methods as those described in 2-3 and 2-4 of Test Example 1.
(2) Study on Inhibitory Effect on Increase in Intracellular Calcium Concentration
The human NK1 receptor-expressing cells were washed with 300 μL/well of a washing solution (20 mM HEPES/Hank's Balanced Salt Solution (HBSS) […]). A fluorescent calcium indicator (Fluo-4 Direct Calcium Assay Kit, Life Technologies, containing 0.42 mM probenecid and 0.1% bovine serum albumin, prepared according to the protocol of the product) was added to the wells at 150 μL/well, and the plate was incubated at 37° C. for 30 minutes in an incubator. Then, DMSO solutions of a test compound, which were prepared at an 80-time higher concentration using 100% dimethyl sulfoxide (DMSO), were added to the wells at 2.5 μL/well (final concentrations of 0.1, 1 and 10 μM), and the solutions were mixed. Then, the plate was further incubated at 37° C. for 30 minutes in an incubator. After 30 minutes, the intracellular calcium concentrations were measured immediately.
The intracellular calcium concentrations were each measured as a fluorescent signal using FDSS (registered trademark) 7000 (Hamamatsu Photonics). A substance P (Peptide Institute, Inc.) solution which was prepared at 0.4 μM or 4 μM using an assay buffer (20 mM HEPES/Hank's Balanced Salt Solution (HBSS) pH 7.3, containing 0.1% bovine serum albumin) was added automatically to each well at 50 μL/well (final concentration of 0.1 or 1 μM) 10 seconds after starting reading, and the fluorescent signal was measured up to 120 seconds.
The intracellular calcium concentration (%) of the cells to which a test compound was added was calculated by the equation below, where the fluorescent signal of the group to which the vehicle (DMSO) was added was regarded as 100%, and the fluorescent signal before the addition of substance P was regarded as 0%. Intracellular calcium concentration(%)=(Fluorescent signal of test compound addition group)/(Fluorescent signal of vehicle addition group)×100
The intracellular calcium concentration (%) calculated was regarded as the remaining agonist activity of substance P (Substance P-Response Remaining: SPRR). In the table, Ex. No. means the Example number. SPRR (%) is the value obtained when the concentration of substance P was 1 μM and the concentration of the compound was 0.1 μM.
(Calcium assays in cells follow changes in intracellular calcium, usually with a dye or a luminescent sensor.)

Data set [4] is described as follows: Measurement of drug concentrations in the brain after foot-tapping test. Type of data set: in vivo. The settings on record: male; 0.3 mg/kg iv, after foot-tapping was finished, gerbil brain; read-out: Conc. (drug concentration in the brain). As for the experimental part:
(§1) A male gerbil (Japan SLC) was anesthetized with isoflurane, and 0.3 mg/kg of a test compound was administered from the jugular vein. After four hours, GR73632 (5 pmol/5 μl), which is an NK1 receptor agonist, was administered into the cerebral ventricle at the part 1 mm lateral to and 4.5 mm below the bregma in the head, under anesthesia with isoflurane. After the administration, the gerbil was moved to an observation cage, and the foot-tapping period during five minutes after the recovery of the righting reflex was measured. The foot-tapping inhibition rate (%) of each test compound was calculated by the following equation. Foot-tapping inhibition rate (%)={1−(Foot-tapping period when test compound was administered)/(Foot-tapping period when solvent was administered)}×100 (2) Measurement of Drug Concentrations
After foot-tapping was finished, laparotomy was performed immediately under anesthesia with ether, and a blood sample was taken from the abdominal vena cava. At the same time, the brain was extracted. Through a quantitative analysis using liquid chromatography-mass spectrometry (LC/MS), the concentrations of the test compound in the plasma and the brain were measured.
(§2) In the table, Ex. No. means the Example number. Inhibition (%) is the foot-tapping inhibition rate, and Conc. (nM) is the drug concentration in the brain.

Another data set addresses NK1 receptor (Meriones unguiculatus (Mongolian jird) (Gerbillus unguiculatus), UniProt Q5DUB1). Nature of the data set: Effect on GR73632-induced foot-tapping. It is filed as in vivo. To be noted: 0.3 mg/kg from the jugular vein, GR73632 after four hours, male gerbil. As for the experimental part:
(1) Effect on Foot-tapping
as §1, §2

In data set [5] the target is T2, human NK1 receptor. Nature of the data set: Affinity for human NK1 receptor (125I-substance P receptor binding test). The settings on record: membrane fraction of human NK1 receptor-expressing 293T cells; read-out: IC50 (concentration required for 50% inhibition of 125I-substance P binding). As for the experimental part:
Affinity for Human NK1 Receptor
(3) Measurement of Binding Affinity to Human NK1 Receptor
(3-1) Preparation of Membrane Fraction from Human NK1 Receptor-expressing Cells
Human NK1 receptor-expressing cells were prepared in a 175 cm^2 culture flask (Nippon Becton Dickinson). The formation of a complex of the human NK1 receptor expression plasmid and Lipofectamine 2000 was performed by calculating the culture area ratio and increasing the scale of the method described in the above 2-4 by the ratio. The human NK1 receptor-expressing cells were collected in a buffer solution for the membrane fraction preparation (50 mM Tris (Wako Pure Chemical). 120 mM sodium chloride (Wako Pure Chemical Industries), 5 mM potassium chloride (Wako Pure Chemical Industries), 1 mM ethylenediaminetetraacetic acid (Sigma), 0.002 mg/mL chymostatin (Peptide Institute), 0.04 mg/ bacitracin (Wako Pure Chemical Industries), 0.005 mg/mL phosphoramidon (Peptide Institute) and 0.5 mM phenylmethylsulfonyl fluoride (Wako Pure Chemical Industries), pH7.4) and centrifuged at 1,880 g for 10 minutes, and the cell sediment was suspended in the buffer solution for the membrane fraction preparation. After freezing and thawing the cells once, the cells were homogenized using a Dounce-type homogenizer (cooled on ice, 1000 rpm, 20 times). The homogenized cell suspension was centrifuged at 20,000 rpm for 10 minutes, and the supernatant was removed to obtain cell sediment. The cell sediment was suspended again in the buffer solution for the membrane fraction preparation and homogenized using a Dounce-type homogenizer (cooled on ice, 1000 rpm, 30 times). The cell suspension was centrifuged at 20,000 rpm for 10 minutes, and the supernatant was removed to obtain cell sediment. The same homogenization and centrifugation were repeated again, and final cell sediment was obtained. The final cell sediment was suspended in a buffer solution for the receptor binding test (50 mM Tris (Wako Pure Chemical Industries), 3 mM manganese chloride (Wako Pure Chemical Industries), 0.002 mg/mL chymostatin (Peptide Institute), 0.04 mg/bacitracin (Wako Pure Chemical Industries) and 0.02% bovine serum albumin (Sigma), pH 7.4), and the protein concentration was measured using BCA Protein Assay Kit (Pierce).
(3-2) Receptor Binding Test
The buffer solution for the receptor binding test was dispensed to the wells of a 96-well assay plate (Greiner) at 22.5 μL/well. DMSO solutions of a test compound, which were prepared at an 80-time higher concentration using 100% dimethyl sulfoxide (DMSO), were added to the wells at 2.5 μL/well (final concentrations of 1 nM to 100 nM), and the solutions were mixed. As a radiolabeled ligand, ^125I-substance P (Substance P, [^125I]Tyr^8-, PerkinElmer) was used. ^125I-substance P was diluted with the buffer solution for the receptor binding test to a concentration resulting in […] and added to the 96-well assay plate, and the solutions were mixed. The membrane fraction prepared from the human NK1 receptor-expressing cells was diluted with the buffer solution for the receptor binding test to a concentration resulting in 8 to 10 μg/well, suspended until the suspension became in such a homogenous state that the suspension could flow through as 27G injection needle smoothly and then added to the 96-well assay plate at 150 μL/well. Then, the plate was incubated at room temperature for 60 minutes while shaking the plate. The reaction solutions were suction-filtered. through a multiscreen 96-well filter plate (Millipore) which had been pre-treated with 0.3% polyethyleneimine, and the reaction was terminated by washing with a washing solution (50 mM Tris and 0.02% bovine serum albumin, pH 7.4) four times. The bottom of the microplate was dried at 60° C., and then 100 μL/well of MicroScint 20 (PerkinElmer) was dispensed to the wells. The top of the plate was sealed with TopSeal A (PerkinElmer), and the plate was shaken for 5 to 10 minutes. […]

Setting [6] is: read-out: IC50 (CYP3A4 inhibition), 30-minute pre-incubation group.

Results on ten compounds are retold here after US10100030B2 (Kissei Pharmaceutical Co., Ltd., priority 2013, dated 2018).

The structures appear in SMILES notation. Read-outs that look alike come from different tables or passages of the source.

T1 sequence (P08684 whole entry): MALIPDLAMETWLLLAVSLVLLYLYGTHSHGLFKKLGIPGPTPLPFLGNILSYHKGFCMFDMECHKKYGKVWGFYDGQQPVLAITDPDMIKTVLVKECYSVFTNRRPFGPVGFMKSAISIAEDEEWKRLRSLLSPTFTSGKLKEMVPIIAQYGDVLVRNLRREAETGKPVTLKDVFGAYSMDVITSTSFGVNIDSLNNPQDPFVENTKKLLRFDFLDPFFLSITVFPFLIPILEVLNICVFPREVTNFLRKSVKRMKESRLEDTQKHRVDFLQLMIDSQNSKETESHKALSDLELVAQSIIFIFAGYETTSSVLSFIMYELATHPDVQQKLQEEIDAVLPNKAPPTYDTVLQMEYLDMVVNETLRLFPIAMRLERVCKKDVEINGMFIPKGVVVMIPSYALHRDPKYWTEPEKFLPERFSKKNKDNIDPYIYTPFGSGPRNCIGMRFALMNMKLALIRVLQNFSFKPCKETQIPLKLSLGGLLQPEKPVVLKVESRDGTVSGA
Chain of NK1 receptor (Q5DUB1 whole entry): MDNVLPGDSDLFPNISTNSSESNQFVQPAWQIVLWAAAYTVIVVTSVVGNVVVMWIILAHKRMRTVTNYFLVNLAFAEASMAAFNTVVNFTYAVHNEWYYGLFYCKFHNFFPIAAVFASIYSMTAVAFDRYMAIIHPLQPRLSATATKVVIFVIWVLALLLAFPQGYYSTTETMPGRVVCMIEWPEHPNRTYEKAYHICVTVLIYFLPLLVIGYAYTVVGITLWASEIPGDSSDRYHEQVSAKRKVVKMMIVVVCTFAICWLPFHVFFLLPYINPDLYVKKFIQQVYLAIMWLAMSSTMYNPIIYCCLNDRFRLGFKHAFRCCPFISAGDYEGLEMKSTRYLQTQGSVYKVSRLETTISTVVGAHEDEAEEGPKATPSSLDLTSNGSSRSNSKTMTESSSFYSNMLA
T2 sequence (P25103 whole entry): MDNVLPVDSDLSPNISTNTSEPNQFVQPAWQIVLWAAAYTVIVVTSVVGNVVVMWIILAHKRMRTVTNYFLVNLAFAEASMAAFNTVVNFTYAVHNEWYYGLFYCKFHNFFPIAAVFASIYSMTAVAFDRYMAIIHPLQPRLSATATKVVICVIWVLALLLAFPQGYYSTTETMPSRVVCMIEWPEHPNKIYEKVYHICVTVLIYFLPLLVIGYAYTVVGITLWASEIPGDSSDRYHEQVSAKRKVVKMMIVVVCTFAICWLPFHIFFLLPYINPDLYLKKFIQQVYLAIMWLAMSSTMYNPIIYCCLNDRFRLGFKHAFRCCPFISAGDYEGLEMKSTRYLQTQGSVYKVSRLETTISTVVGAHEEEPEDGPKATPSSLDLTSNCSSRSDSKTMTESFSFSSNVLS

As to `C[C@@H](O[C@H]1OCCN(Cc2n[nH]c(=O)[nH]2)[C@H]1c1ccc(F)cc1)c1cc(C(F)(F)F)cc(C(F)(F)F)c1` [Aprepitant, aprepitant], the “inhibitory effect on CYP3A4 (reported)” value on CYP3A4 [1] is on record as “dose-dependent inhibitory effect on CYP3A4”.
For `Cc1ccccc1-c1cc(N2CCC(CC(=O)O)CC2)ncc1N(C)C(=O)C(C)(C)c1cc(C(F)(F)F)cc(C(F)(F)F)c1` [Example 2, (5′-{[2-(3,5-Bistrifluoromethylphenyl)-2-methylpropionyl]methylamino}-4′-ortho-tolyl-3,4,5,6-tetrahydro-2H-[1,2]bipyridinyl-4-yl)acetic acid], the IC50 at CYP3A4 [2] (setting [6]) turned out to be 13000 nM; on human NK1 receptor [5], 2.53 nM. Also, the remaining activity at 0.1 µM on human NK1 receptor [3] turned out to be 54%. For the same compound, the concentration at 4 h in data set [4] amounted to 167 nM. At NK1 receptor, the “Inhibition (foot-tapping inhibition rate)” value (“Inhibition” below) came out at 81%.
As to `Cc1cc(F)ccc1-c1cc(N2CCC(CC(=O)O)C(C)(C)C2)ncc1N(C)C(=O)C(C)(C)c1cc(C(F)(F)F)cc(C(F)(F)F)c1` (stereo not drawn) [Example 3], the IC50 on CYP3A4 [2] (setting [6]) stood at 3700 nM; at human NK1 receptor [5] it was 4.61 nM. Further, the remaining activity at 0.1 µM at human NK1 receptor [3] worked out at 13%. Moreover, the concentration at 4 h in data set [4] was 262 nM. Moreover, on NK1 receptor, the “Inhibition” value worked out at 100%.
Taken in the same sequence, the figures for `Cc1cc(F)ccc1-c1cc(N2CCC(CC(=O)O)C(C)C2)ncc1N(C)C(=O)C(C)(C)c1cc(C(F)(F)F)cc(C(F)(F)F)c1` (stereo not drawn) [Example 4] were 4800 nM, 3.54 nM, 16%, 179 nM and 100%.
For `COC1CN(c2cc(-c3ccc(F)cc3C)c(N(C)C(=O)C(C)(C)c3cc(C(F)(F)F)cc(C(F)(F)F)c3)cn2)CCC1CC(=O)O` (stereo not drawn) [Example 5, [5′-{[2-(3,5-Bistrifluoromethylphenyl)-2-methylpropionyl]methylamino}-4′-(4-fluoro-2-methylphenyl)-3-methoxyl-3,4,5,6-tetrahydro-2H-[1,2′]bipyridinyl-4-yl]acetic acid], the figures for the IC50 on CYP3A4 [2] (setting [6]) and on human NK1 receptor [5] were 5500 nM and 3.29 nM, respectively. Also, on human NK1 receptor [3], the remaining activity at 0.1 µM was found to be 49%. The concentration at 4 h in data set [4] is 111 nM. In addition, the “Inhibition” value at NK1 receptor came out at 97%.
As to `Cc1cc(F)ccc1-c1cc(N2CCC(CC(=O)O)CC2)nc(C#N)c1N(C)C(=O)C(C)(C)c1cc(C(F)(F)F)cc(C(F)(F)F)c1` [Example 6], the figures for the IC50 at CYP3A4 [2] (setting [6]) and on human NK1 receptor [5] were 2600 nM and 2.6 nM, respectively. For the same compound, the remaining activity at 0.1 µM on human NK1 receptor [3] was 73%. Further, in data set [4], the concentration at 4 h is 243 nM. Besides, the “Inhibition” value at NK1 receptor is listed as 100%.
Take `Cc1cc(F)ccc1-c1cc(N2CCC(C(C)(C)C(=O)O)CC2)ncc1N(C)C(=O)C(C)(C)c1cc(C(F)(F)F)cc(C(F)(F)F)c1` [Example 7, [5′-{[2-(3,5-Bistrifluoromethylphenyl)-2-methylpropionyl]methylamino}-4′-(4-fluoro-2-methylphenyl)-3,4,5,6-tetrahydro-2H-[1,2′]bipyridinyl-4-yl]-2-methylpropionic acid]: the IC50 turned out to be 4100 nM on CYP3A4 [2] (setting [6]) and 4.65 nM on human NK1 receptor [5]. The remaining activity at 0.1 µM on human NK1 receptor [3] came to 6%.
In the case of `Cc1cc(F)ccc1-c1cc(N2CCC(C)(CC(=O)O)CC2)ncc1N(C)C(=O)C(C)(C)c1cc(C(F)(F)F)cc(C(F)(F)F)c1` [Example 9], the IC50 on CYP3A4 [2] (setting [6]) came out at 6300 nM; on human NK1 receptor [5], 2.83 nM. Besides, the remaining activity at 0.1 µM at human NK1 receptor [3] was 6%.
In the case of `Cc1cc(F)ccc1-c1cc(N2CCC(C)(CC(=O)O)CC2)nc(C#N)c1N(C)C(=O)C(C)(C)c1cc(C(F)(F)F)cc(C(F)(F)F)c1` [Example 10, [5′-{[2-(3,5-Bistrifluoromethylphenyl)-2-methylpropionyl]methylamino}-6′-cyano-4′-(4-fluoro-2-methylphenyl)-4-methyl-3,4,5,6-tetrahydro-2H-[1,2′]bipyridinyl-4-yl]acetic acid], the IC50 at CYP3A4 [2] (setting [6]) is 3800 nM; at human NK1 receptor [5] it was 3.32 nM. In data set [4], the concentration at 4 h stood at 219 nM. The “Inhibition” value at NK1 receptor was determined as 100%.
As for `Cc1cc(F)ccc1-c1cc(N2CCC([C@H](C)C(=O)O)CC2)ncc1N(C)C(=O)C(C)(C)c1cc(C(F)(F)F)cc(C(F)(F)F)c1` [Example 11, (S)-2-[5′-{[2-(3,5-Bistrifluoromethylphenyl)-2-methylpropionyl]methylamino}-4′-(4-fluoro-2-methylphenyl)-3,4,5,6-tetrahydro-2H-[1,2′]bipyridinyl-4-yl]propionic acid], the figures for the IC50 against CYP3A4 [2] and at human NK1 receptor [5] were 4900 nM and 1.32 nM, respectively. Further, the remaining activity at 0.1 µM on human NK1 receptor [3] is 7%.
